Measured values from article PMC3201940, “A Robust and Rapid Method of Producing Soluble, Stable, and Functional G-Protein Coupled Receptors” (PLoS ONE, 2011).

Target: T1, hVN1R1 (Homo sapiens, UniProt Q9GZP7)
T1 construct: gene VN1R1
T1 sequence (Q9GZP7 1-353): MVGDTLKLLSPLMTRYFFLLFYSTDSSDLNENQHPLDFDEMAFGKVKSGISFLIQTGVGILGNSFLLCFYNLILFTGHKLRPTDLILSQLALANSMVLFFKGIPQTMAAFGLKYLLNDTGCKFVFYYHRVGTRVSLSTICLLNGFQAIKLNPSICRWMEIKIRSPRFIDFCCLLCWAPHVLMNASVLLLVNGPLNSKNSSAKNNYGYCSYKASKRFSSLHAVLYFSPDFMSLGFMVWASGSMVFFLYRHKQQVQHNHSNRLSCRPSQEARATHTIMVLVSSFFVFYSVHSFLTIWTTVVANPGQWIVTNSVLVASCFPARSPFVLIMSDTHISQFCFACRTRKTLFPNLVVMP
Test: label-free microscale thermophoresis (tryptophan fluorescence), purified receptor, heat-denatured control
Type: binding

EC50: 3.5 ± 0.7 µM
Compound: C=C(C)C1CC=C(C)C(O)C1 (mixture of isomers) [carveol]
